Key:
[1] = system: normal skin fibroblasts (HFF-1); assay: Cytotoxicity MTT assay, normal skin fibroblasts; type: cell-based, human; conditions: Homo sapiens, HFF-1, 72 h, 72 h incubation, mean ± SD
Method in brief: (§1)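 Cells grown in DMEM or MEM with 10% FBS at 37 °C, 5% CO2; tumour lines seeded at 3000 and fibroblasts at 5000 cells/well. Compounds added at 0.01 to 100 µM for 72 h, growth read by MTT. IC50 from dose–response curves by linear regression, tetraplicates, two experiments.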

[2] = Metabolic stability in mouse liver microsomes; type: in vitro ADME
From the text: Mouse liver microsomes were obtained from Corning Life Sciences (Corning, NY, USA). DMSO, nicotinamide adenine dinucleotide phosphate (NADP), glucose-6-phosphate, glucose-6-phosphate dehydrogenase, magnesium chloride, propranolol, caffeine, diclofenac, and phosphate-buffered saline (PBS) were purchased from Sigma (St. Louis, MO, USA). Acetonitrile (ACN) and methanol (MeOH) were obtained from Merck (Darmstadt, Germany). Testosterone was purchased from Steraloids (Newport, RI, USA). Metabolic stability was assessed in mouse liver microsomes. Compounds (final concentration of 1 µM, 0.03% DMSO v/v) were incubated in duplicate in phosphate buffer (50 mM, pH 7.4) at 37 °C together with mouse liver microsomes in the absence and presence of the NADPH cofactor (0.5 mM nicotinamide adenine dinucleotide phosphate, 5 mM glucose-6-phosphate, 1.5 U/mL glucose-6-phosphate dehydrogenase, and 0.5 mM magnesium chloride). Incubation and sampling were performed on a Freedom EVO 200 (Tecan, Männedorf, CH, Switzerland) at […], 10, 20, 30, 45, and 60 min. The reaction was quenched using 3 volumes of a mixture of ACN/MeOH (2:1) containing internal standard (diclofenac), centrifuged, and the supernatants were analyzed using LC-MS/MS. The metabolic activity of the microsomes was verified via simultaneous analysis of several controls including testosterone, propranolol, and caffeine. The in vitro half-life (t1/2) was calculated using GraphPad Prism (v9.0 software) non-linear regression of % of parent compound remaining versus time. In vitro clearance, expressed as µL/min/mg, was estimated from the in vitro half-life (t1/2) and normalized for the protein amount in the incubation mixture, assuming 52.5 mg of protein per gram of liver and using constant values for mouse liver weight/body weight [87.5 g/kg] and mouse liver blood flow (LBF) [131 mL/min/kg].
All samples were quantified using tandem mass spectrometry coupled to liquid chromatography. Samples were analyzed on a Sciex API4000 Triple Quadrupole Mass Spectrometer (Sciex, Division of MDS Inc., Toronto, Canada) coupled to a Shimadzu Nexera X2 UHPLC frontend (Kyoto, Japan). Samples were injected onto a UHPLC column (HALO2 C18, 2.1 × 20 mm, 2 µm or Luna Omega 1.6 µm Polar C18 100A, 30 × 2.1 mm) and eluted with a gradient at 50 °C. The mobile phase was composed of acetonitrile/water mixture (9/1, with 0.1% formic acid) and 0.1% formic acid in deionized water. The flow rate was 0.7 mL/min under gradient conditions, leading to a total run time of 1.5–2 min. A positive ion mode with turbo spray, an ion source temperature of 550 °C, and a dwell time of 150 ms were utilized for mass spectrometric detection. Quantitation was performed using multiple reaction monitoring (MRM) at the specific transitions for each compound.

[3] = system: colorectal carcinoma (HT-29) cells; assay: Antiproliferative MTT assay, HT-29; type: cell-based, human; conditions: Homo sapiens, HT-29, 72 h, 72 h incubation, MTT; mean ± SD
Method in brief: as §1

[4] = Hydrolytic stability in aqueous buffer (UV/Vis); type: physicochemical; conditions: phosphate buffer/DMSO 99:1, pH 7.4, 1 × 10⁻⁴ mol dm⁻³, UV/Vis spectra over 24 h
From the text: Solvents and chemicals, including starting purines and purine bioisosters 1–5, as well as para-substituted 2-phenyloxiranes 11–15 and phenacyl bromide 21–25, were purchased from Sigma-Aldrich (St. Louis, MO, USA), Alfa Aesar (Haverhill, MA, USA), and Fisher Scientific International (Pittsburgh, PA, USA). The progress of all reactions was monitored by thin layer chromatography on pre-coated Merck (Darmstadt, Germany) silica gel plates 60F254. The synthesized compounds were purified via column chromatography using Fluka (Buchs, Switzerland) silica gel (0.063−0.2 mm) and the appropriate solvent. All NMR spectra were recorded using a Bruker 300, 400, and 600 MHz NMR spectrometer (Bruker Biospin, Rheinstetten, Germany) in deuterated DMSO solutions, with TMS as the internal standard. The melting points of all newly synthesized compounds were determined using a Koffler (Reichert, Vienna) hot stage microscope. The ^1H (δ/ppm) and ^13C NMR (δ/ppm) spectra of compounds 26a,b–49a,b can be found in the Supporting Information (Figures S1–S48). The purity of all newly synthesized compounds was determined by elemental analysis and the elemental analysis results are within 0.5% of the theoretical values. The UV/Vis absorption spectra of compounds 40a, 45a, and 49b were measured at a concentration of 1 × 10⁻⁴ mol dm⁻³ in phosphate buffer and DMSO (99:1, v/v) at pH 7.4 using a Varian Cary 50 spectrophotometer in double-beam mode at 25 °C.
Selected 6-chloropurine (40a), 4-chloropyrrolo[2,3-d]pyrimidine (45a), and 4-chloroimidazo[4,5-c]pyridine (49b) with significant antiproliferative activity were examined for hydrolytic stability in an aqueous buffer solution.
2. UV/Vis absorption spectra of selected compounds
Figure S49. UV/Vis absorption spectra of compounds 40a (a), 45a (b), and 49b (c) recorded in phosphate buffer with 1% DMSO (99:1, v/v) at pH 7.4 (c = 1 × 10⁻⁴ mol dm⁻³). Spectra were measured immediately after sample preparation and after 24 hours to evaluate spectral stability over time.
(1 picture or pasted object on this page, not shown here)

Clearance Values (CL) ([2]; predicted in vivo hepatic clearance from mouse liver microsome t1/2, 1 µM compound) [%] | IC50 [3] [µM] | hydrolytic stability [4] | Clearance Class. ([2]; mouse liver microsomes) | SMILES | IC50 [1] [µM]
54 | 26 ± 1.2 | hydrolytically stable |  | OCC(c1ccc(C(F)(F)F)cc1)n1cc(Cn2ccc3c(Cl)ncnc32)nn1 (centres unmarked) [Compound 45a, 4-Chloro-7-((1-(2-hydroxy-1-(4-(trifluoromethyl)phenyl)ethyl)-1H-1,2,3-triazol-4-yl)methyl)-7H-pyrrolo[2,3-d]pyrimidine] | 20 ± 4.7
 | 10 ± 3.2 | hydrolytically stable | LOW (<30% low) | OC(Cn1cc(Cn2cnc3c(Cl)nccc32)nn1)c1ccc(Br)cc1 (centres unmarked) [Compound 49b, 4-Chloro-1-((1-(2-hydroxy-2-(4-bromophenyl)ethyl)-1H-1,2,3-triazol-4-yl)methyl)-1H-imidazo[4,5-c]pyridine] | 21 ± 5.8

Reference: article PMC11940194, “Synthesis, Antiproliferative Activity, and ADME Profiling of Novel Racemic and Optically Pure Aryl-Substituted Purines and Purine Bioisosteres” (Biomolecules, 2025)
